From patent US10202349B2, “Asymmetric bis-acridines with antitumour activity and their uses” (POLITECHNIKA GDAŃSKA, priority 2015, dated 2019)

Experiments:
AsPC-1 = assay: Cytotoxic activity in vitro, SRB; type: cell-based, human
Method: (§1) Cytotoxic activity tests in-vitro. A measure of the cytotoxic activity of bis-acridines are the EC50 (concentration of studied compounds at which 50% inhibition of proliferation of tumorous is observed) of the evaluated compounds that inhibit the growth of 50% of cells in relation to a control. The cytotoxic activity of the compounds was determined using SRB, recommended by the US National Cancer Institute (USA). As the spectrum of 13 human origin neoplasms in bis-acridine screening studies, we used the following: HT 29 [CRC], HCT 116 [CRC], H 460 [lung cancer], MDA MB 231 [breast cancer], MCF-7 [breast cancer], UM UC3 [bladder cancer], PC 3 [prostate cancer], DU 145 [ prostate cancer], Panc-1 [pancreatic cancer], Mia Pa Ca 2 [pancreatic cancer], BXPC 3 [pancreatic cancer], AsPC1 [pancreatic cancer], Capan-2 [pancreatic cancer]. […] The DU-145 results were substantially a basis for selecting compounds and neoplasms for screening. The next neoplasms most sensitive to the cytotoxic activity of bis-acridines was the CRC HCT-116, as well as breast cancer MBA-MB-231. […] The cytotoxic activity of the remaining bis-acridines is significant or high (EC50 in the range from 1 to 0.04 μM). […] Panc-1, MiaPaCa-2 and Capan-2 are more sensitive, whereas for AsPC-1 and BxPC-3 this activity is at least an order of magnitude smaller.

BxPC-3 = assay: Cytotoxic activity in vitro, SRB; type: cell-based, human
Method: as §1

DU-145 = assay: Cytotoxic activity in vitro, SRB; type: cell-based, human
Method: as §1

HCT-116 = assay: Cytotoxic activity in vitro, SRB; type: cell-based, human
Method: as §1

MiaPaCa-2 = assay: Cytotoxic activity in vitro, SRB; type: cell-based, human
Method: as §1

PANC-1 = assay: Cytotoxic activity in vitro, SRB; type: cell-based, human
Method: as §1

PANC 1 = assay: Anti-neoplasmic activity against xenograft in hairless mice; type: in vivo
Method: (§2) For this, we selected 26 bis-acridines, mainly on the basis of the cytotoxic activity. We performed 34 series of experiments evaluating the anti-neoplasmic activity on xenografts in hairless mice against eleven neoplasms of human origin from the determination of the cytotoxic activity of bis-acridines (table 4). The tumours were injected subcutaneously to hairless mice of 5-weeks, female Crl:Nu-Foxnlnu, at a rate of 5×10^6 cells per mouse. After attaining a tumour of about 100 mm^3 or 200 mm^3 in depending on the neoplasm and its take this was 8 or even 30 days, and began therapy. On the day therapy was initiated, we randomised the animals and divided them into groups. Test groups were from 6 to 8 animals, and controls had from 8 to 14 animals. Each compound was tested at three differentiated doses.
(§3) The preparations were administered intravenously (i.v.) twice weekly for 4 weeks (thrice weekly for rapidly growing neoplasms). In several series, we used intraperitoneally (i.p.) administration in the same scheme. […] The therapeutic efficacy of the tested formulations was evaluated by measuring tumour size (length and width measurements of the tumour on the basis of the calculated tumour volume). Tumours were measured twice weekly for a period of about 30 days for fast-growing neoplasms, as well as about 60 days for the slow-growing neoplasms. The tumour volume in the treated groups compared with the control group. On this basis, inhibition of tumour growth was calculated using the following formula: Tumour growth inhibition TGI [%]=100−(ΔVT/ΔVC×100) Where ΔVT—is mean the tumour volume in animals in the group treated at the given day of treatment, minus the mean tumour volume in animals at the date of commencement of therapy. ΔVC is mean tumour volume in animals in the control group on a given day of treatment minus the average tumour volume of animals on the date of commencement of therapy. The results of the tests of anti-neoplasmic activity conducted in xenografts of human-origin neoplasms in mice are shown in Table 5.
(§4) The result above was accepted only in the case that the dose administered in all animals or more than half of the animals that survived to the end of the experiment. In addition, the evaluation was the day that the administration of the preparation was already completed: for the fast-growing neoplasms (eg. HCT116) this was in the days from 15 to 26, while for slow-growing neoplasms (eg. Panc 1) on a day from 34 to 60. […] In addition, the maximum inhibition of neoplasms could be identified in the day, in which there were no factors that could change the value TGI value.
(§5) Such factors may include: a significant decrease in body weight, the appearance of observable toxaemia, excessive rate of tumour growth: tumours in excess of 2000 mm^3 and all animals alive on that day.

HT-29 = assay: Cytotoxic activity in vitro, SRB; type: cell-based, human
Method: as §1

MDA-MB-231 = assay: Cytotoxic activity in vitro, SRB; type: cell-based, human
Method: as §1

DU 145 = assay: Anti-neoplasmic activity against xenograft in hairless mice; type: in vivo; details: single 8 mg/kg
Method: as §2, §3, §4, §5

H-460 = assay: Cytotoxic activity in vitro, SRB; type: cell-based, human
Method: as §1

H 460 = assay: Anti-neoplasmic activity against xenograft in hairless mice; type: in vivo
Method: as §2, §3, §4, §5

UM-UC-3 = assay: Cytotoxic activity in vitro, SRB; type: cell-based, human
Method: as §1

MCF-7 = assay: Cytotoxic activity in vitro, SRB; type: cell-based, human
Method: as §1

PC-3 = assay: Cytotoxic activity in vitro, SRB; type: cell-based, human
Method: as §1

Capan-2 = assay: Cytotoxic activity in vitro, SRB; type: cell-based, human
Method: as §1

BXPC 3 = assay: Anti-neoplasmic activity against xenograft in hairless mice; type: in vivo; details: series 25, i.v., single 20 mg/kg, total 160 mg/kg, day 29
Method: as §2, §3, §4, §5

Row | Molecule | EC50 (AsPC-1) [µM] | EC50 (BxPC-3) [µM] | EC50 (DU-145) [µM] | EC50 (HCT-116) [µM] | EC50 (MiaPaCa-2) [µM] | EC50 (PANC-1) [µM] | EC50 (HT-29) [µM] | EC50 (MDA-MB-231) [µM] | EC50 (H-460) [µM] | EC50 (UM-UC-3) [µM] | EC50 (MCF-7) [µM] | further results
1 | 1-[3-(8-hydroxy-methylimidazo[4,5,1-de]-acridin-6-on-5-yl)aminopropyl]-4-[3′-(1′-nitroacridin-1-yl)-aminopropyl]piperazine [C-2051] | 0.151 | 0.152 | 0.024 | 0.027 | 0.018 | 0.039 | – | – | – | – | – | TGI [%] [100 − (ΔVT/ΔVC × 100] (PANC 1; series 27, i.v., single 2 mg/kg, total 16 mg/kg, day 40, *at least half of animals did not survive): 68* %
2 | Cc1ccc(NCCNCCNc2c3ccccc3nc3cccc([N+](=O)[O-])c23)c2c(=O)c3ccccc3[nH]c12 [C-1965, 9-{N-[(4-methyl-9(10H)-acridono-1-yl)aminoethyl]ethylamino}-1′-nitroacridine] | – | – | 0.243 | – | – | 0.212 | 0.138 | 0.137 | – | – | – | TGI [%] [100 − (ΔVT/ΔVC × 100] (DU 145; series 1, i.p., total 40 mg/kg, day 35, *at least half of animals did not survive): 61* %
3 | Cc1ccc([N+](=O)[O-])c2c(NCCCN3CCN(CCCNc4ccc(C)c5[nH]c6ccccc6c(=O)c45)CC3)c3ccccc3nc12 [C-2017, 1-[3-(4-methyl-9(10H)-acridono-1-yl)aminopropyl]-1-[3′-(4′-methyl-1′-nitroacridin-1-yl)-aminopropyl]piperazine] | – | – | 0.046 | 0.047 | 0.067 | – | 0.061 | 0.048 | 0.04 | – | – | TGI [%] [100 − (ΔVT/ΔVC × 100] (DU 145; series 2, i.p., total 48 mg/kg, day 35): 25%; TGI [%] [100 − (ΔVT/ΔVC × 100] (H 460; series 5, i.p., single 5 mg/kg, total 30 mg/kg, day 14): 6%; TGI [%] [100 − (ΔVT/ΔVC × 100] (PANC 1; series 31, i.v., single 15 mg/kg, total 120 mg/kg, day 51): 75%
4 | Cc1ccc([N+](=O)[O-])c2c(NCCCNCCCNc3ccc(C)c4[nH]c5ccccc5c(=O)c34)c3ccccc3nc12 [C-2022, 9-{N-[(4-methyl-9(10H)-acridono-1-yl)aminopropyl]propylamino}-4′-methyl-1′-nitroacridine] | – | – | 0.129 | 0.085 | – | 0.162 | 1.3 | – | 0.067 | 0.105 | – | TGI [%] [100 − (ΔVT/ΔVC × 100] (H 460; series 5, i.p., single 10 mg/kg, total 60 mg/kg, day 14): 25%
5 | CN(CCCNc1c2ccccc2nc2cccc([N+](=O)[O-])c12)CCCNc1ccc([N+](=O)[O-])c2[nH]c3ccccc3c(=O)c12 [C-2026, 9-{N-[(4-nitro-9(10H)acridono-1-yl)aminopropyl]-N-methylaminopropylamino}-1′-nitroacridine] | 0.066 | – | 0.024 | 0.26 | 0.103 | 0.028 | 0.067 | 0.028 | 0.01 | 0.029 | 0.695 | EC50 (PC-3): 0.051 µM; TGI [%] [100 − (ΔVT/ΔVC × 100] (H 460; series 16, i.v., single 1 mg/kg, total 5 mg/kg, day 15): 14%; TGI [%] [100 − (ΔVT/ΔVC × 100] (H 460; series 16, i.v., single 4 mg/kg, total 16 mg/kg, day 14, *at least half of animals did not survive): 35* %
6 | Cc1ccc([N+](=O)[O-])c2c(NCCCN3CCN(CCCNc4ccc([N+](=O)[O-])c5[nH]c6ccccc6c(=O)c45)CC3)c3ccccc3nc12 [C-2030, 1-[3-(4-nitro-9(10H)-acridono-1-yl)aminopropyl]-4-[3′-(4′-methyl-1′-nitroacridin-1-yl)-aminopropyl]piperazine] | – | – | 0.041 | 0.083 | 0.108 | 0.13 | – | – | 0.04 | 0.063 | – | EC50 (PC-3): 0.362 µM; TGI [%] [100 − (ΔVT/ΔVC × 100] (H 460; series 6, i.v., single 10 mg/kg, total 60 mg/kg, day 17, *at least half of animals did not survive): 24* %
7 | O=c1c2ccccc2n2cnc3ccc(NCCNCCNCCNc4c5ccccc5nc5cccc([N+](=O)[O-])c45)c1c32 [C-2037] | 0.086 | 0.138 | 0.04 | 0.102 | 0.064 | 0.037 | – | 0.027 | – | – | 0.082 | EC50 (Capan-2): 0.044 µM; TGI [%] [100 − (ΔVT/ΔVC × 100] (PANC 1; series 17, i.v., single 4 mg/kg, total 16 mg/kg, day 39): 60%
8 | CN(CCCNc1c2ccccc2nc2cccc([N+](=O)[O-])c12)CCCNc1ccc2ncn3c4ccc(O)cc4c(=O)c1c23 [C-2042, 9-{N-[(8-hydroxyimidazo[4,5,1-de]-acridin-6-on-5-yl)aminopropyl]-N-methylaminopropylamino}-1′-nitroacridine] | 0.082 | 0.081 | 0.021 | 0.018 | 0.047 | 0.055 | – | 0.018 | – | – | 0.049 | EC50 (Capan-2): 0.029 µM; TGI [%] [100 − (ΔVT/ΔVC × 100] (PANC 1; series 17, i.v., single 4 mg/kg, total 20 mg/kg, day 39, *at least half of animals did not survive): 33* %
9 | O=c1c2ccccc2n2nnc3ccc(NCCCN4CCN(CCCNc5c6ccccc6nc6cccc([N+](=O)[O-])c56)CC4)c1c32 [C-2048, 1-[3-(6H-[1,2,3]triazolo[4,5,1-de]-acridin-6-on-5-yl)aminopropyl]-4-[3′-(1′-nitroacridin-1-yl)-aminopropyl]piperazine] | – | – | 0.022 | 0.041 | – | – | 0.152 | 0.033 | – | 0.12 | 0.103 | TGI [%] [100 − (ΔVT/ΔVC × 100] (PANC 1; series 30, i.v., single 4 mg/kg, total 24 mg/kg, day 52): 86%
10 | Cc1ccc([N+](=O)[O-])c2c(NCCCN3CCN(CCCNc4ccc5ncn6c7ccccc7c(=O)c4c56)CC3)c3ccccc3nc12 [C-2050, 1-[3-(imidazo[4,5,1-de]-acridin-6-on-5-yl)aminopropyl]-4-[3′-(4′-methyl-1′-nitroacridin-1-yl)-aminopropyl]piperazine] | 0.24 | 0.351 | 0.062 | 0.045 | 0.058 | 0.065 | – | – | – | – | – | TGI [%] [100 − (ΔVT/ΔVC × 100] (BXPC 3): 40%; TGI [%] [100 − (ΔVT/ΔVC × 100] (PANC 1; series 24, i.v., single 20 mg/kg, total 160 mg/kg, day 50): 64%; TGI [%] [100 − (ΔVT/ΔVC × 100] (PANC 1; series 26, i.v., single 30 mg/kg, total 160 mg/kg, day 40): 64%
11 | CN(CCCNc1c2ccccc2nc2cccc([N+](=O)[O-])c12)CCCNc1ccc2nnn3c4ccc(O)cc4c(=O)c1c23 [C-2052, 9-{N-[(8-hydroxy-6H-[1,2,3]triazolo[4,5,1-de]-acridin-6-on-5-yl)aminopropyl]-N-methylaminopropylamino}-1′-nitroacridine] | – | – | 0.028 | – | – | – | – | – | 0.074 | 0.155 | 0.22 | activity against Panc-1 pancreatic cancer (PANC 1; in words, scale of b125: TGI≥80% as high activity): high level of activity; TGI [%] [100 − (ΔVT/ΔVC × 100] (PANC 1; series 30, i.v., single 1 mg/kg, total 8 mg/kg, day 52): 39%
